Measured values as given in patent US20200031920A1, “Combination Therapy for Treating Cancer” (The George Washington University, priority 2017, published 2020).

Columns and labels:
[1] = test system: IGROV1 cells; test: cell proliferation assay, IGROV1 parental cells; assay type: cell-based; details: 5 days
From the text: (§1) FIG. 60 is a line graph showing the proliferation of IGROV1 parental and IGROV1 CR cells treated with increasing concentrations of cisplatin for 5 days (left). Data are represented as mean±SD from three independent experiments performed in triplicate. Indicated IC50 values represent the mean of two independent experiments performed in triplicate.
Using a similar approach as described in FIG. 1, another cisplatin resistant ovarian cancer cell line IGROV1 CR was raised from its cisplatin sensitive parental cell IGROV1 cells. […] The cell proliferation of IGROV1 CR cells treated with cisplatin, LY2784544 or both LY2784544 and cisplatin was examined.

[2] = test system: PEO1 cells; test: cell proliferation assay, PEO1 cells; assay type: cell-based; details: 5 days
From the text: as §1, with “63” for “60”, “PEO1” for “IGROV1 parental”, “PEO4” for “IGROV1 CR”, “days.” for “days (left).”
For ovarian cancer, recurrence more than 12 months after initial chemotherapy was considered as platinum sensitive. PEO4 was derived from the patient 10 months later when they had progressive disease and had become cisplatin resistant.

[3] = test system: SKOV3 xenograft tumors; test: SKOV3 and SKOV3 CR xenograft tumors treated with cisplatin; assay type: in vivo, nude mice
Method: FIG. 4 is an illustration showing representative TUNEL staining (A) and a bar graph (B) of SKOV3 and SKOV3 CR xenograft tumors treated with cisplatin for two weeks (2 mg/kg or 4 mg/kg cisplatin twice per week) and quantified apoptosis percentage (B). n−3 mice/group. Bar in (A)−50 μm. Data are represented as mean±SD. **p<0.01, ***p<0.001.
FIG. 52 is a bar graph showing IL-11 levels measured by ELISA in plasma of mice bearing SKOV3 xenograft tumors treated with vehicle or cisplatin (2-6 mg/kg/twice a week intraperitoneally for 2 weeks). Data are represented as mean±SD. n=3 mice/group. **p<0.01, ***p<0.001.
Since cisplatin exerts its anticancer effect mainly through its ability to cause DNA damage, resulting in apoptosis, the apoptotic cells in both SKOV3 and SKOV CR cells were measured using Annexin V and Propidium Iodide staining. […] To test whether SKOV3 CR cells are resistant to cisplatin-induced apoptosis in vivo, both SKOV3 and SKOV3 CR cells were injected into nude mice to form xenograft tumors. Once the tumor size reached 100-150 mm^3, cisplatin was given to mice by intraperitoneal injections twice a week for 2 weeks. Three days after treatment, the apoptosis in tumors was examined by TUNEL staining. […] Currently, carboplatin is a more commonly used platinum drug employed clinically to treat ovarian patients. Ozols et al., J Clin Oncol 21: 3194-3200 (2003). Thus, it was tested whether SKOV3 CR cells are also resistant to carboplatin (Sigma-Aldrich).
To further test whether ovarian cancer cells have a similar response to cisplatin in vivo, SKOV3 xenograft tumors were treated with various doses of cisplatin (2 mg-6 mg/kg/twice per week) for 2 weeks. Mice were sacrificed 4 days after the last treatment, and blood samples and xenograft tumors were collected to examine IL-11 expression. […] A high dose of cisplatin generated the high levels of both IL-11 and pJAK2 (Y1007/1008) on tumors (FIG. 53). Thus, cisplatin is able to promote expression of IL-11 as well as JAK2 pathway both in vitro and in vivo.

[4] = target: JAK2 (Homo sapiens, UniProt O60674); test: in vitro kinase profiling, more than 450 human kinases; assay type: binding; details: data not shown
Method: (§2) To determine whether LY2784544 is able to sensitize SKOV3 CR cells to cisplatin in vivo, SKOV3 CR cells were implanted subcutaneously into nude mice. When the tumor volume reached 100 mm^3, mice were randomized to receive intraperitoneal injections of vehicle, cisplatin (8 mg/kg on days 1 and 8), LY2784544 (15 mg/kg/d from day 1 to day 14), or the combination of cisplatin and LY2784544. […] To evaluate whether this in vivo tumor suppression was through inhibition of the JAK2 pathway and increased apoptosis, the tumor samples four days after full dosage treatment were collected. […] Quantification of phosphorylated JAK2 and TUNEL staining in tumor tissues treated was performed (FIG. 28). […] To confirm the selectivity of LY2784544, an in vitro kinase profiling was conducted to examine the interaction of LY2784544 with more than 450 human kinases.

[5] = test system: SKOV3 CR cells; test: clonogenic (colony formation) assay; assay type: cell-based; details: 0.1 μM LY2784544 and 0.5 μM cisplatin, 14 days
Method: FIG. 16 is an illustration showing representative colony formation (A) and bar graphs ((B)-(C)). SKOV3 parental and resistant cells were treated with 0.1 μM LY2784544 and 0.5 μM cisplatin for 14 days and quantification data of colony formation assays ((B) and (C)). Colonies in (A) were stained with crystal violet. Data are represented as mean±SD from three independent experiments performed in triplicate. *p<0.05, **p<0.01, ***p<0.001.
Clonogenic assays were conducted to evaluate the cell survival of SKOV3 and SKOV3 CR cells in response to cisplatin, LY2784544, or both cisplatin and LY2784544. […] Currently, carboplatin-based chemotherapy becomes a universal choice. The synergistic effect of LY2784544 with carboplatin on SKOV3 CR cells was also examined.

[6] = test system: SKOV3 CR xenograft tumors; test: SKOV3 CR xenograft tumors in nude mice; assay type: in vivo
Method: FIG. 26 are line graphs showing the growth curves of tumors (A) and Kaplan-Meier survival curves (C) from mice treated with vehicle, LY2784544 (15 mg/kg/day intraperitoneally), cisplatin (8 mg/kg/week intraperitoneally), or LY2784544 plus cisplatin (combo) for 2 weeks. A photograph of the representative tumor from mice in each treatment arm is also shown (B). Data in (A) are represented as mean±SEM, n=6 mice/group. *p<0.05, **p<0.01, ***p<0.001. Data in (B) are represented as n=6 mice/group. *p<0.05, **p<0.01. Ruler scale in (B) is in cm.
FIG. 27 is an illustration showing the IHC and TUNEL staining of tumors from mice in each treatment arm sacrificed after 4 days of treatment. n=3 mice/group. Bar=50 μm.
as §2

[7] = SKOV3 xenograft, cisplatin 2-6 mg/kg twice per week for 2 weeks
[8] = tumor samples four days after full dosage treatment

JAK2, sequence (O60674 whole entry): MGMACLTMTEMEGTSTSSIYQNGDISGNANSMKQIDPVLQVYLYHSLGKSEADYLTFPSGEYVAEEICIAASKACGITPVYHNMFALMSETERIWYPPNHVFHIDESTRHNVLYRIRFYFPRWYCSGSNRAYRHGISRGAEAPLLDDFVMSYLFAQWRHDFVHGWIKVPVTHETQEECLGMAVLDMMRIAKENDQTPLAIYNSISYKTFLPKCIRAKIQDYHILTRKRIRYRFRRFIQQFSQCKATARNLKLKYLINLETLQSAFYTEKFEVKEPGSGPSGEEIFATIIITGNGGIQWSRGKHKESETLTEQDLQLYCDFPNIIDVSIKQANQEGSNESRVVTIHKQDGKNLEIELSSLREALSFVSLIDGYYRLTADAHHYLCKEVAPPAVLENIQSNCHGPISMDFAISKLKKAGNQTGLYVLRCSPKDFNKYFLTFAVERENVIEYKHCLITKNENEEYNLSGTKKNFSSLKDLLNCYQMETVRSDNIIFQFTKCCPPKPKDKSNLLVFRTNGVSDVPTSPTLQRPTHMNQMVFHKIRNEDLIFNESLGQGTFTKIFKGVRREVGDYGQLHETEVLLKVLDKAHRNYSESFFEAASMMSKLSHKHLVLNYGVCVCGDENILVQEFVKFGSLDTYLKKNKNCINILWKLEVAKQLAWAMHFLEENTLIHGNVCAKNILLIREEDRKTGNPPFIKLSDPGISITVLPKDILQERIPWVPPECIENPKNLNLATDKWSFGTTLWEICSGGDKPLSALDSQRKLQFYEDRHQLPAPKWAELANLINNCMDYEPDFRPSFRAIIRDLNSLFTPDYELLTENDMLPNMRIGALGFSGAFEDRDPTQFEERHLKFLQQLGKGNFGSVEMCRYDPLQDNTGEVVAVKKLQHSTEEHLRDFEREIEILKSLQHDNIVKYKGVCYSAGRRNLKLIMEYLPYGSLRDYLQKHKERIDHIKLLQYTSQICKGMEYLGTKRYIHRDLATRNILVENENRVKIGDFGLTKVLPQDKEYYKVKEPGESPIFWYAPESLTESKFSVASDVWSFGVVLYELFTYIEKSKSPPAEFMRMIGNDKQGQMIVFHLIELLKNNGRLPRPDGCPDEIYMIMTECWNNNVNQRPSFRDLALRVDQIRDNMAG

`N.N.[Cl][Pt][Cl]` [cisplatin] was tested, and the IC50 [1] was 510 nM, the IC50 [2] was 320 nM and the “IL-11 and pJAK2 levels in tumors (IHC)” value [3, 7] was “significant increase of IL-11 as well as pJAK2 (Y1007/1008) levels in SKOV3 tumors”. For the same molecule, the “human IL-11 levels in serum” value [3, 7] was “dramatically increased human IL-11 levels in serum of nude mice” and the “apoptosis in xenograft tumors (TUNEL)” value ([3]; cisplatin i.p. twice a week for 2 weeks (2 or 4 mg/kg), three days after treatment) was “apoptotic population was significantly increased in SKOV3 but not in SKOV3 CR cells”.

With `Cc1cc(Nc2cc(CN3CCOCC3)c3nc(C)c(Cc4ccc(Cl)cc4F)n3n2)n[nH]1` [LY2784544] the “binding selectivity among kinases” value [4] was “stronger binding to JAK2 than JAK1 and TYK2”, the “cell survival, combined treatment compared to cisplatin treatment” value [5] was “significantly reduced the survival of SKOV3 CR” and the “tumor growth, combination versus vehicle or single agents” value ([6]; LY2784544 15 mg/kg/d i.p. day 1-14 plus cisplatin 8 mg/kg i.p. days 1 and 8) was “significantly reduced the tumor growth”. The “survival of mice, combination” value ([6]; LY2784544 15 mg/kg/d i.p. plus cisplatin 8 mg/kg i.p. days 1 and 8) was “improved survival of the mice”, the “histopathology of liver and kidney” value ([6]; any treated groups (cisplatin, LY2784544, combination), 4 days after final treatment) was “No histopathological changes and lesions in liver and kidney” and the “mouse body weight, combined treatment with cisplatin” value ([6]; during treatment) was “no significant reduction in mouse body weight”. The “apoptosis in tumors (TUNEL), combined with cisplatin” value [6, 8] was “significantly induced the apoptosis” and the “phosphorylation of JAK2 in tumors (IHC)” value [6, 8] was “efficiently reduce the phosphorylation of JAK2 in vivo”.
